Where two headings read alike, the source gives them in different places.
Test system: MDD patients carrying the indicated conditions
Conditions: Phase I, with SSRI
Protocol: Folate levels are classified as either low (<=2.5 ng/ml) or normal; and homocysteine levels as either normal or elevated (>=[…]). The presence or absence of at least one […] allele for the MTHFR gene are entered as a dichotomous variable (present or absent). […] Using folate as an example predicator, the presence or absence of a low serum-folate level along with treatment assignment can be entered in a 2×2, factorial ANOVA, using depression improvement scores (baseline minus endpoint HAM-D-17 scores) as the dependant variable. […] Similar analyses (i.e. separate 2×2 ANOVA's) can be performed substituting the presence of low folate levels for the presence of other predictors as described herein. Similarly, the effect of other predictors can be indicated by the interaction term representing the potential modulating influence of those variables.
Particularly, specific genetic and biomarkers that were assessed include the following: • (a) BMI calculation of at least about 30 kg/m^2; • (b) an expression ratio of SAM/SAH smaller than 2.8 (e.g., 2.71) as measured in a plasma sample; • (c) a level of 4-HNE no less than 3.28 μg/mL (as measured in a plasma sample); • (d) presence of rare variants CT or TT at position 677 of SEQ ID NO: 1 corresponding to a portion of a genomic nucleic acid sequence of methylenetetrahydrofolate reductase (MTHFR) (abbreviated as “MTHFR 677” below); • (e) presence of rare variants AG or GG at position 2756 of SEQ ID NO: 2 corresponding to a portion of genomic nucleic acid sequence of methionine synthase (MTR) (abbreviated as “MTR 2756” below); and • (f) presence of rare variants AG or GG at position 66 of SEQ ID NO: 3 corresponding to a portion of genomic nucleic acid sequence of methionine synthase reductase (MTRR) (abbreviated as “MTRR 66” below).
The efficacy effect is determined by measuring the mean change in the HAMD-17 score and HAMD-28 score by the end of Phase I and Phase II, as compared to the baseline.

CN1c2c(nc(N)[nH]c2=O)NC[C@@H]1CNc1ccc(C(=O)N[C@@H](CCC(=O)O)C(=O)O)cc1 [6(S)-5-MTHF, 6(S)-5-methyltetrahydrofolate]
Effect, change in HAMD-17 score (25 =< BMI < 30 kg/m^2 (18, 10)): 2.600 | Effect, change in HAMD-28 score (25 =< BMI < 30 kg/m^2 (18, 10)): 2.602 | Effect, change in HAMD-17 score (BMI < 25 (14, 7)): 1.576 | Effect, change in HAMD-28 score (BMI < 25 (14, 7)): 0.909 | Effect, change in HAMD-17 score (BMI < 30 kg/m^2 and HNE-His < median (19, 9)): 3.771 | Effect, change in HAMD-28 score (BMI < 30 kg/m^2 and HNE-His < median): 4.606 | Effect, change in HAMD-17 score (BMI < 30 kg/m^2 and SAM/SAH >= median (16,8)): 4.333 | Effect, change in HAMD-28 score (BMI < 30 kg/m^2 and SAM/SAH >= median): 4.333 | Effect, change in HAMD-17 score (BMI >= 30 kg/m^2 (40,21)): −6.414 | Effect, change in HAMD-28 score (BMI >= 30 kg/m^2 (40,21)): −6.677 | Effect, change in HAMD-17 score (BMI >= 30 kg/m^2 and HNE-His >= median (23, 11)): −6.569 | Effect, change in HAMD-28 score (BMI >= 30 kg/m^2 and HNE-His >= median): −6.510 | Effect, change in HAMD-17 score (BMI >= 30 kg/m^2 and SAM/SAH < median (21,9)): −5.611 | Effect, change in HAMD-28 score (BMI >= 30 kg/m^2 and SAM/SAH < median = 2.71 (plasma sample)): −6.306 | Effect, change in HAMD-17 score (MTHFR 677 CC and BMI < 30 kg/m^2 (17,8)): 4.500 | Effect, change in HAMD-28 score (MTHFR 677 CC and BMI < 30 kg/m^2): 2.769 | Effect, change in HAMD-17 score (MTHFR 677 CC and HNE-His < median (20,11)): −1.471 | Effect, change in HAMD-28 score (MTHFR 677 CC and HNE-His < median = 3.28 (plasma sample)): −2.821 | Effect, change in HAMD-17 score (MTHFR 677 CC and MTR 2756 AA (29,13)): −0.700 | Effect, change in HAMD-28 score (MTHFR 677 CC and MTR 2756 AA): −0.192 | Effect, change in HAMD-17 score (MTHFR 677 CT or TT and BMI >= 30 kg/m^2 (13,6)): −8.738 | Effect, change in HAMD-28 score (MTHFR 677 CT or TT and BMI >= 30 kg/m^2): −9.857 | Effect, change in HAMD-17 score (MTHFR 677 CT or TT and HNE-His >= median (11,6)): −7.143 | Effect, change in HAMD-28 score (MTHFR 677 CT or TT and HNE-His >= median): −6.929 | Effect, change in HAMD-17 score (MTHFR 677 CT or TT and MTR 2756 AG or GG (8,4)): −13.47 | Effect, change in HAMD-28 score (MTHFR 677 CT or TT and MTR 2756 AG or GG): −18.00 | Effect, change in HAMD-17 score (MTR 2756 AA (45,21)): −0.621 | Effect, change in HAMD-17 score (MTR 2756 AA and BMI < 30 kg/m^2 (17,7)): 4.476 | Effect, change in HAMD-28 score (MTR 2756 AA and BMI < 30 kg/m^2): 5.524 | Effect, change in HAMD-17 score (MTR 2756 AA and HNE-His < median (26,13)): 0.306 | Effect, change in HAMD-28 score (MTR 2756 AA and HNE-His < median): 0.639 | Effect, change in HAMD-17 score (MTR 2756 AA and MTRR 66 AA (11,5)): 3.125 | Effect, change in HAMD-17 score (MTR 2756 AA and MTRR 66 AA and HNE-His < median (6,4)): 3.000 | Effect, change in HAMD-28 score (MTR 2756 AA and MTRR 66 AA and HNE-His < median = 3.28 (plasma sample)): 4.200 | Effect, change in HAMD-17 score (MTR 2756 AA and MTRR 66 AA and SAM/SAH >= median (6,3)): −0.400 | Effect, change in HAMD-28 score (MTR 2756 AA and MTRR 66 AA and SAM/SAH >= median): −1.000 | Effect, change in HAMD-28 score (MTR 2756 AA and MTRR 66 AA): 5.000 | Effect, change in HAMD-17 score (MTR 2756 AA and SAM/SAH >= median (24,12)): −1.556 | Effect, change in HAMD-28 score (MTR 2756 AA and SAM/SAH >= median): −1.278 | Effect, change in HAMD-28 score (MTR 2756 AA): 0.409 | Effect, change in HAMD-17 score (MTR 2756 AG or GG and BMI >= 30 kg/m^2 (10,5)): −12.905 | Effect, change in HAMD-28 score (MTR 2756 AG or GG and BMI >= 30 kg/m^2): −18.762 | Effect, change in HAMD-17 score (MTR 2756 AG or GG and HNE-His >= median (13,7)): −7.125 | Effect, change in HAMD-28 score (MTR 2756 AG or GG and HNE-His >= median = 3.28 (plasma sample)): −9.950 | Effect, change in HAMD-17 score (MTR 2756 AG or GG and MTRR 66 AG or GG (15,7)): −6.900 | Effect, change in HAMD-17 score (MTR 2756 AG or GG and MTRR 66 AG or GG and BMI >= 30 kg/m^2 (8,4)): −13.667 | Effect, change in HAMD-28 score (MTR 2756 AG or GG and MTRR 66 AG or GG and BMI >= 30 kg/m^2): −18.833 | Effect, change in HAMD-17 score (MTR 2756 AG or GG and MTRR 66 AG or GG and HNE-His >= median (10,4)): −7.200 | Effect, change in HAMD-28 score (MTR 2756 AG or GG and MTRR 66 AG or GG and HNE-His >= median): −9.800 | Effect, change in HAMD-17 score (MTR 2756 AG or GG and MTRR 66 AG or GG and SAM/SAH < median (8,3)): −9.000 | Effect, change in HAMD-28 score (MTR 2756 AG or GG and MTRR 66 AG or GG and SAM/SAH < median = 2.71 (plasma sample)): −12.741 | Effect, change in HAMD-28 score (MTR 2756 AG or GG and MTRR 66 AG or GG): −9.996 | Effect, change in HAMD-17 score (MTR 2756 AG or GG and SAM/SAH < median (10,4)): −9.800 | Effect, change in HAMD-28 score (MTR 2756 AG or GG and SAM/SAH < median = 2.71 (plasma sample)): −14.993 | Effect, change in HAMD-17 score (MTR 2756 AG/GG (20,11)): −7.143 | Effect, change in HAMD-28 score (MTR 2756 AG/GG): −10.926

Reference: patent US9540691B2, “Assays and methods for selecting a treatment regimen for a subject with depression” (THE GENERAL HOSPITAL CORPORATION, priority 2011, dated 2017)
